According to ChEMBL document CHEMBL3132769, “Fragment growing to retain or alter the selectivity of anchored kinase hinge-binding fragments” (Medchemcomm, 2014):

Columns and labels:
[1] = biological target: T1, cGMP-dependent protein kinase 1 (Homo sapiens) (UniProt Q13976); test: Inhibition of human full length PKG-1beta expressed in baculovirus assessed as substrate phosphorylation using fluorescence-labelled peptides as substrate at 95 uM after 90 mins by microfluidic peptide phosphorylation assay
T1 sequence (whole entry): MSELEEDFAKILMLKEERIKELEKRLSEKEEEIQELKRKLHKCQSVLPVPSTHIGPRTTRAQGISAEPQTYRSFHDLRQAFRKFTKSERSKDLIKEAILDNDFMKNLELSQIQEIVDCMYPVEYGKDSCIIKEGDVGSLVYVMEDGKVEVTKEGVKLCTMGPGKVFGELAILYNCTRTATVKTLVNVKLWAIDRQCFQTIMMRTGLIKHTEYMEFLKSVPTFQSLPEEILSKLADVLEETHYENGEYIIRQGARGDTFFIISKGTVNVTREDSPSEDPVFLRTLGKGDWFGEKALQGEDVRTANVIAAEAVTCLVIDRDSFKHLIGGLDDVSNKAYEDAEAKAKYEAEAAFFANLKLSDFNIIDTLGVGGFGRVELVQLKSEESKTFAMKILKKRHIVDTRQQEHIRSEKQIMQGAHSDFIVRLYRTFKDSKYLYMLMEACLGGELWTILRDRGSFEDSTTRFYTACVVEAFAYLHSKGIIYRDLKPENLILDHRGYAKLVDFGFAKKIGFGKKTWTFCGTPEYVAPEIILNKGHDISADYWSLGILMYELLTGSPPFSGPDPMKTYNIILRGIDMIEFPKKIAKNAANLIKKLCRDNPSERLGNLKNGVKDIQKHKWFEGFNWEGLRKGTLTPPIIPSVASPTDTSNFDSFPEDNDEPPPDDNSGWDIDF

[2] = biological target: MAP kinase-activated protein kinase 2 (Homo sapiens) (UniProt P49137); test: Inhibition of human full length MAPKAPK2 expressed in baculovirus assessed as substrate phosphorylation using fluorescence-labelled peptides as substrate at 95 uM after 90 mins by microfluidic peptide phosphorylation assay
MAP kinase-activated protein kinase 2 (Homo sapiens), sequence (P49137 whole entry, looked up, the tested form may be a part): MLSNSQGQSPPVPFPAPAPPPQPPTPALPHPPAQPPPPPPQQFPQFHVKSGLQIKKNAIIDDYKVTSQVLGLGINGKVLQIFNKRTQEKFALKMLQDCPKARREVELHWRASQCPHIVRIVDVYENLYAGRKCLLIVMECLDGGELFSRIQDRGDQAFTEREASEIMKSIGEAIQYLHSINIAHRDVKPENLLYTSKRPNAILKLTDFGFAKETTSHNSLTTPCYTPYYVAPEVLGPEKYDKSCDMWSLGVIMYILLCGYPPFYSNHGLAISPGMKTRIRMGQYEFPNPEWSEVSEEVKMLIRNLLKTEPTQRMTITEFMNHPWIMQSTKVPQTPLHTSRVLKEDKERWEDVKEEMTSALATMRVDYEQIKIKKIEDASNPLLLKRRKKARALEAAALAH

[3] = biological target: Protein kinase C alpha type (Homo sapiens) (UniProt P17252); test: Inhibition of human truncated PKC alpha expressed in baculovirus assessed as substrate phosphorylation using fluorescence-labelled peptides as substrate at 0.2 uM after 90 mins by microfluidic peptide phosphorylation assay
[4] = biological target: Dual specificity tyrosine-phosphorylation-regulated kinase 1A (Rattus norvegicus) (UniProt Q63470); test: Inhibition of rat full length DYRK1a expressed in Escherichia coli cell assessed as substrate phosphorylation using fluorescence-labelled peptides as substrate at 0.2 uM after 90 mins by microfluidic peptide phosphorylation assay
[5] = biological target: Tyrosine-protein kinase HCK (Homo sapiens) (UniProt P08631); test: Inhibition of human HCK catalytic domain expressed in baculovirus assessed as substrate phosphorylation using fluorescence-labelled peptides as substrate at 8 uM after 90 mins by microfluidic peptide phosphorylation assay
Tyrosine-protein kinase HCK (Homo sapiens), sequence (P08631 2-526 limits assumed): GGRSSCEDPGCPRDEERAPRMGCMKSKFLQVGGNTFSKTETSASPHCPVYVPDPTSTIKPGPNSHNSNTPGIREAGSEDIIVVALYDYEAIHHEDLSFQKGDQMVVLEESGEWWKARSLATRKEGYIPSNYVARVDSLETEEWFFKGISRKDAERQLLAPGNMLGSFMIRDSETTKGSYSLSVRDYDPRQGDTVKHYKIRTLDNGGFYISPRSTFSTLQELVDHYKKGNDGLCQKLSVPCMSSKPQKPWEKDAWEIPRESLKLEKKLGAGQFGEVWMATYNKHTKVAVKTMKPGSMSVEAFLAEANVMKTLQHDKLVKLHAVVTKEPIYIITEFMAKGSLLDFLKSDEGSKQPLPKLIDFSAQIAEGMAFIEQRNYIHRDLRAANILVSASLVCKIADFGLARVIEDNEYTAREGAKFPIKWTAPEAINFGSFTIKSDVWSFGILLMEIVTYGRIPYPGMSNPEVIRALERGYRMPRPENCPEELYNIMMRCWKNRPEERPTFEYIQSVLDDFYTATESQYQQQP

[6] = biological target: T2, Cytoplasmic tyrosine-protein kinase BMX (Homo sapiens) (UniProt P51813); test: Inhibition of human full length BMX expressed in baculovirus assessed as substrate phosphorylation using fluorescence-labelled peptides as substrate at 8 uM after 90 mins by microfluidic peptide phosphorylation assay
T2 sequence (whole entry): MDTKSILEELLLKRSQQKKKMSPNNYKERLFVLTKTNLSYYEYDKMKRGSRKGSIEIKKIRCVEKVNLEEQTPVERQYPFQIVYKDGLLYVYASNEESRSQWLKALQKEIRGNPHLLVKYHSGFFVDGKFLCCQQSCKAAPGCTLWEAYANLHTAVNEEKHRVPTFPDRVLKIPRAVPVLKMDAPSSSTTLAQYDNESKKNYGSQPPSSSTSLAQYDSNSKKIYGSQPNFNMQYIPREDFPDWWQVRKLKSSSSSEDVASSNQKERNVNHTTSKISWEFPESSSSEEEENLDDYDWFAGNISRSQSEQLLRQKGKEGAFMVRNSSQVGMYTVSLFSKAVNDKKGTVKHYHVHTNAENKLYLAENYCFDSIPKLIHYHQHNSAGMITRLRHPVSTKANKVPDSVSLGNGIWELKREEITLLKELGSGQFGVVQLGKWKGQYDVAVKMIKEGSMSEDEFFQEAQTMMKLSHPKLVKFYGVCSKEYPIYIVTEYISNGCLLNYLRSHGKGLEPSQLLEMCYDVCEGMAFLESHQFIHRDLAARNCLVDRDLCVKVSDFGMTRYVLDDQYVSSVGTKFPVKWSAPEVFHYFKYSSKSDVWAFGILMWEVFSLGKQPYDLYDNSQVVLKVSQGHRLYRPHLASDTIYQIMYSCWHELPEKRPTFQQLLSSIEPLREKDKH

[7] = biological target: Fibroblast growth factor receptor 2 (Homo sapiens) (UniProt P21802); test: Inhibition of human FGFR2 catalytic domain expressed in baculovirus assessed as substrate phosphorylation using fluorescence-labelled peptides as substrate at 8 uM after 90 mins by microfluidic peptide phosphorylation assay
Fibroblast growth factor receptor 2 (Homo sapiens), sequence (P21802 22-821 limits assumed): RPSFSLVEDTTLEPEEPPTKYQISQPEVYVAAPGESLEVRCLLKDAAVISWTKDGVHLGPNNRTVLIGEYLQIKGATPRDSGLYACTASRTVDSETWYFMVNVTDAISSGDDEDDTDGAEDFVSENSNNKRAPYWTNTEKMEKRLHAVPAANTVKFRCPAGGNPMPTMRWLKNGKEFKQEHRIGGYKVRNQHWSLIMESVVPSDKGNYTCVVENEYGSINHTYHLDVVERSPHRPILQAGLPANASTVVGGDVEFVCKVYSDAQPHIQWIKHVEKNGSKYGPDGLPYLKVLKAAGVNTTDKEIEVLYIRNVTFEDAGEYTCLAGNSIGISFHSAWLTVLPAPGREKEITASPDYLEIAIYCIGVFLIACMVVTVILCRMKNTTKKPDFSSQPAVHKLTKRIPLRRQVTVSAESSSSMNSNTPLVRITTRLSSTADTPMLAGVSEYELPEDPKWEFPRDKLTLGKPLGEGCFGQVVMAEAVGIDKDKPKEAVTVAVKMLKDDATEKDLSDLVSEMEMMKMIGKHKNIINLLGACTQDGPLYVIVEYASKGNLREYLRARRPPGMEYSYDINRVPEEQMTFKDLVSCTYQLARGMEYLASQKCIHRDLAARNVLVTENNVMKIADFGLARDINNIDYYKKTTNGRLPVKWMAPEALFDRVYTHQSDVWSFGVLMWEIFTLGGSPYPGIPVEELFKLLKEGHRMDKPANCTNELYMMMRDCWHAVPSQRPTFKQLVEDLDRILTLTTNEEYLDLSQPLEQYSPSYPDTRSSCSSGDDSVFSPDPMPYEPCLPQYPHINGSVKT

[8] = biological target: Tyrosine-protein kinase Lyn (Homo sapiens) (UniProt P07948); test: Inhibition of human full length LYN expressed in baculovirus assessed as substrate phosphorylation using fluorescence-labelled peptides as substrate at 2 uM after 90 mins by microfluidic peptide phosphorylation assay
Tyrosine-protein kinase Lyn (Homo sapiens), sequence (P07948 2-512 limits assumed): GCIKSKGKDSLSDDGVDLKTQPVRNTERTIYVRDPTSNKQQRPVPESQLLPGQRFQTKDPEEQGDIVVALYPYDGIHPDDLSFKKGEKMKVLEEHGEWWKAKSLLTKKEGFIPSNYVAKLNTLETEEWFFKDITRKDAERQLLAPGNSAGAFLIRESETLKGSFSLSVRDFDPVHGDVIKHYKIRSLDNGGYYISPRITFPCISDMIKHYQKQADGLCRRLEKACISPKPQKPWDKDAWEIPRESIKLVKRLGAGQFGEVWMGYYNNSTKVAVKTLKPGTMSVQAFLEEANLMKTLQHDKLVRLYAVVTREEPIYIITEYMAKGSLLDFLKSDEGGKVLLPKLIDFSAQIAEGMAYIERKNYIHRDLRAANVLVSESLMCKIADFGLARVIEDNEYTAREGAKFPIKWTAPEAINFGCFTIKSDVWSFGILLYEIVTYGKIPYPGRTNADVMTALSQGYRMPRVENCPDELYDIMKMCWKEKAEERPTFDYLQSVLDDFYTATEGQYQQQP

[9] = biological target: Tyrosine-protein kinase HCK (Homo sapiens) (UniProt P08631); test: Inhibition of human HCK catalytic domain expressed in baculovirus assessed as substrate phosphorylation using fluorescence-labelled peptides as substrate at 1000 uM after 90 mins by microfluidic peptide phosphorylation assay
[10] = biological target: MAP/microtubule affinity-regulating kinase 3 (Homo sapiens) (UniProt P27448); test: Inhibition of human full length c-TAK1 expressed in Escherichia coli cell assessed as substrate phosphorylation using fluorescence-labelled peptides as substrate at […] after 90 mins by microfluidic peptide phosphorylation assay
[11] = biological target: Tyrosine-protein kinase ABL1 (Homo sapiens) (UniProt P00519); test: Inhibition of human full-length ABL expressed in baculovirus assessed as substrate phosphorylation using fluorescence-labelled peptides as substrate at 420 uM after 90 mins by microfluidic peptide phosphorylation assay
Tyrosine-protein kinase ABL1 (Homo sapiens), sequence (P00519 whole entry, the tested form may be a part, canonical isoform): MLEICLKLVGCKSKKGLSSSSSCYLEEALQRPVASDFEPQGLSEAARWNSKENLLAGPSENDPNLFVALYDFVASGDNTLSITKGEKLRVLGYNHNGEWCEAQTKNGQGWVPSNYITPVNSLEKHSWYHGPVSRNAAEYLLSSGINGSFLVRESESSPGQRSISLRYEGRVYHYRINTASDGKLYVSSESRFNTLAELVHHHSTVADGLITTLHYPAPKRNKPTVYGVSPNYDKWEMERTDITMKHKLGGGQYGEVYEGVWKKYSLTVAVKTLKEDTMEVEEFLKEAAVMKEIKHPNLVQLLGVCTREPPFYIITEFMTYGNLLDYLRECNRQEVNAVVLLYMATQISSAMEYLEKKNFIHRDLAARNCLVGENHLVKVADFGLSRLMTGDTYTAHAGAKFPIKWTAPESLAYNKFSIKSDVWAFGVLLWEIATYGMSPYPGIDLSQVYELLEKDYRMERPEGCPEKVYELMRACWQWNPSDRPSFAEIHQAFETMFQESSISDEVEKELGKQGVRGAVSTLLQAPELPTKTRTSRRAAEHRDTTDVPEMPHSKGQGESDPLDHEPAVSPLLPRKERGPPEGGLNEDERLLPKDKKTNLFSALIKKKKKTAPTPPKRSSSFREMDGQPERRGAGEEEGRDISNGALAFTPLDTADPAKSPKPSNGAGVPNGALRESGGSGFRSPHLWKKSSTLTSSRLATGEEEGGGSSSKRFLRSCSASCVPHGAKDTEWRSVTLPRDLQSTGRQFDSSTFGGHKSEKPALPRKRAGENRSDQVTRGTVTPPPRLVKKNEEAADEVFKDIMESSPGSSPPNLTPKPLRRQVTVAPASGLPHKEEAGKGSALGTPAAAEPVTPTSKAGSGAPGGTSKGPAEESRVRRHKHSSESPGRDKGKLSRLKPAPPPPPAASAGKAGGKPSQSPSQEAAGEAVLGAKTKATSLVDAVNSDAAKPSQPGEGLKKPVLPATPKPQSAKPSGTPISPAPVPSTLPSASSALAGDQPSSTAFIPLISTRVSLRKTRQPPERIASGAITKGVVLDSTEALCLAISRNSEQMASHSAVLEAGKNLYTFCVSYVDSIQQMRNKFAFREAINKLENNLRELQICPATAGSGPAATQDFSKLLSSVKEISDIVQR

[12] = biological target: Casein kinase I isoform delta (Homo sapiens) (UniProt P48730); test: Inhibition of human CK1D catalytic domain expressed in Escherichia coli cell assessed as substrate phosphorylation using fluorescence-labelled peptides as substrate at 420 uM after 90 mins by microfluidic peptide phosphorylation assay
Casein kinase I isoform delta (Homo sapiens), sequence (P48730 whole entry, looked up, the tested form may be a part, canonical isoform): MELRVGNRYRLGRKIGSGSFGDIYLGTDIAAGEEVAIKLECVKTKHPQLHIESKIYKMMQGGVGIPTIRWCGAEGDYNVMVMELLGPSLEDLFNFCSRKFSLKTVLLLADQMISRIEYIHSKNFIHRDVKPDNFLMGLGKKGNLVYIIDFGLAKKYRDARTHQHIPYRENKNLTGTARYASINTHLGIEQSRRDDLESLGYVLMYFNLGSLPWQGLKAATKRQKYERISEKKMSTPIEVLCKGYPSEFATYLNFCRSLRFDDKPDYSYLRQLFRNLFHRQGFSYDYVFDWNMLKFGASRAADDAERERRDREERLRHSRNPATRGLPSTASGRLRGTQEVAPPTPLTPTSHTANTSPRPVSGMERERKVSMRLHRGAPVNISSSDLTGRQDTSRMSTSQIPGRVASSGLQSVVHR

[13] = biological target: T3, Testis-specific serine/threonine-protein kinase 2 (Homo sapiens) (UniProt Q96PF2); test: Inhibition of human full length TSSK2 expressed in baculovirus assessed as substrate phosphorylation using fluorescence-labelled peptides as substrate at 9 uM after 90 mins by microfluidic peptide phosphorylation assay
T3 sequence (whole entry): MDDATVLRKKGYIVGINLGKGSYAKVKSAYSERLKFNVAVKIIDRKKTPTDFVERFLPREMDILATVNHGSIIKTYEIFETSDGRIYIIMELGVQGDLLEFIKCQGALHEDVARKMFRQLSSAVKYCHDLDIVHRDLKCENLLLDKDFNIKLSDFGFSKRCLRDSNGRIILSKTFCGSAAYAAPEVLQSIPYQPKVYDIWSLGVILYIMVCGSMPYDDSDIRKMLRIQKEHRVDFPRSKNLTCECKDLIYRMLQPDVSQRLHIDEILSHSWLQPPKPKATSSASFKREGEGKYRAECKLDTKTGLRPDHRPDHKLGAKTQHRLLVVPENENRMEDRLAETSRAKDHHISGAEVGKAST

NCCc1ccc(-c2ncnc3[nH]cnc23)cc1
inhibition [1]: 93% | inhibition [2]: 56.5%

Clc1ccc(C2(c3ccc(-c4ncnc5[nH]cnc45)cc3)CCNCC2)cc1
inhibition [3]: 77.5% | inhibition [4]: 11%

NCC1CCN(c2ncnc3[nH]ccc23)CC1
inhibition [5]: 19.5% | inhibition [6]: 42.5% | inhibition [7]: 29.5%

NC1CCN(c2ncnc3[nH]ccc23)CC1
inhibition [8]: 0.5%

c1cnc2[nH]ccc2c1
inhibition [9]: 30%

COC(=O)c1cnc(Nc2cnc(C#N)cn2)cc1NCC1CCNCC1
inhibition [10]: 0.5%

c1nc(N2CCOCC2)c2nc[nH]c2n1
inhibition [11]: 69% | inhibition [12]: 81.5%

NCC1CN(c2ncnc3[nH]c4cnccc4c23)CCO1 (stereo not drawn)
inhibition [13]: 0%
